The target of test [1] is Cyclin-dependent kinase 2/cyclin A (Homo sapiens) (UniProt P24941+P20248+P78396). Nature of the test: Enzymatic radiometric [Km ATP] KinaseProfiler LeadHunter assay, kinase: CDK2/cyclinA, catalogue number: 14-448KP The assay has been performed by Eurofins Discovery. The class given is protein-complex assay. The settings on record: ATP concentration 45.0 uM, Test compound concentration 10.0 uM.

Test [2] concerns the target CDK7/Cyclin H/MNAT1 (Homo sapiens) (UniProt P51946+P50613+P51948). Nature of the test: Enzymatic radiometric [Km ATP] KinaseProfiler LeadHunter assay, kinase: CDK7/cyclinH/MAT1, catalogue number: 14-476KP The assay has been performed by Eurofins Discovery. The class given is protein-complex assay. To be noted: ATP concentration 90.0 uM, Test compound concentration 10.0 uM.

The target in test [3] is Glycogen synthase kinase-3 beta (Homo sapiens) (UniProt P49841). Nature of the test: Enzymatic radiometric [Km ATP] KinaseProfiler LeadHunter assay, kinase: GSK3-beta, catalogue number: 14-306KP The assay has been performed by Eurofins Discovery. The settings on record: ATP concentration 15.0 uM, Test compound concentration 10.0 uM.
The target in test [4] is Insulin-like growth factor 1 receptor (Homo sapiens) (UniProt P08069). Nature of the test: Enzymatic radiometric [Km ATP] KinaseProfiler LeadHunter assay, kinase: IGF-1R, catalogue number: 14-465KP The assay has been performed by Eurofins Discovery. To be noted: ATP concentration 200.0 uM, Test compound concentration 10.0 uM.
Test [5] addresses Tyrosine-protein kinase JAK2 (Homo sapiens) (UniProt O60674). Nature of the test: Enzymatic radiometric [Km ATP] KinaseProfiler LeadHunter assay, kinase: JAK2, catalogue number: 14-640KP The assay has been performed by Eurofins Discovery. The settings on record: ATP concentration 45.0 uM, Test compound concentration 10.0 uM.
Test [6] concerns the target Vascular endothelial growth factor receptor 2 (Homo sapiens) (UniProt P35968). Nature of the test: Enzymatic radiometric [Km ATP] KinaseProfiler LeadHunter assay, kinase: KDR, catalogue number: 14-630KP The assay has been performed by Eurofins Discovery. To be noted: ATP concentration 90.0 uM, Test compound concentration 10.0 uM.
Test [7] deals with MAP kinase-activated protein kinase 2 (Homo sapiens) (UniProt P49137). Nature of the test: Enzymatic radiometric [Km ATP] KinaseProfiler LeadHunter assay, kinase: MAPKAP-K2, catalogue number: 14-337KP The assay has been performed by Eurofins Discovery. The settings on record: ATP concentration 90.0 uM, Test compound concentration 10.0 uM.
Sequence of MAP kinase-activated protein kinase 2 (Homo sapiens) (P49137 whole entry, looked up): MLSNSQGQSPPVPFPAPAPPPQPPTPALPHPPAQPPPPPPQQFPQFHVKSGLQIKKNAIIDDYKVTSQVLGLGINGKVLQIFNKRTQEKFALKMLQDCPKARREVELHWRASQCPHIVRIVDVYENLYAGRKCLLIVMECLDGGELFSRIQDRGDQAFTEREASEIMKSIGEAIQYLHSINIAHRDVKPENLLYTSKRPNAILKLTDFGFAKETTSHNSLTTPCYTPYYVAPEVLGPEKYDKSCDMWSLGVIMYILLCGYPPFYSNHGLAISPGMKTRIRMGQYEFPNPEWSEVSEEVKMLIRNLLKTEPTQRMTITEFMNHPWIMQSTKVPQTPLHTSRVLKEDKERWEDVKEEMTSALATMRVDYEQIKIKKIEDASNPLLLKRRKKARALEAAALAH
The target of test [8] is Mitogen-activated protein kinase kinase kinase 9 (Homo sapiens) (UniProt P80192). Nature of the test: Enzymatic radiometric [Km ATP] KinaseProfiler LeadHunter assay, kinase: MLK1, catalogue number: 14-690KP The assay has been performed by Eurofins Discovery. To be noted: ATP concentration 45.0 uM, Test compound concentration 10.0 uM.
Sequence of Mitogen-activated protein kinase kinase kinase 9 (Homo sapiens) (P80192 whole entry, looked up): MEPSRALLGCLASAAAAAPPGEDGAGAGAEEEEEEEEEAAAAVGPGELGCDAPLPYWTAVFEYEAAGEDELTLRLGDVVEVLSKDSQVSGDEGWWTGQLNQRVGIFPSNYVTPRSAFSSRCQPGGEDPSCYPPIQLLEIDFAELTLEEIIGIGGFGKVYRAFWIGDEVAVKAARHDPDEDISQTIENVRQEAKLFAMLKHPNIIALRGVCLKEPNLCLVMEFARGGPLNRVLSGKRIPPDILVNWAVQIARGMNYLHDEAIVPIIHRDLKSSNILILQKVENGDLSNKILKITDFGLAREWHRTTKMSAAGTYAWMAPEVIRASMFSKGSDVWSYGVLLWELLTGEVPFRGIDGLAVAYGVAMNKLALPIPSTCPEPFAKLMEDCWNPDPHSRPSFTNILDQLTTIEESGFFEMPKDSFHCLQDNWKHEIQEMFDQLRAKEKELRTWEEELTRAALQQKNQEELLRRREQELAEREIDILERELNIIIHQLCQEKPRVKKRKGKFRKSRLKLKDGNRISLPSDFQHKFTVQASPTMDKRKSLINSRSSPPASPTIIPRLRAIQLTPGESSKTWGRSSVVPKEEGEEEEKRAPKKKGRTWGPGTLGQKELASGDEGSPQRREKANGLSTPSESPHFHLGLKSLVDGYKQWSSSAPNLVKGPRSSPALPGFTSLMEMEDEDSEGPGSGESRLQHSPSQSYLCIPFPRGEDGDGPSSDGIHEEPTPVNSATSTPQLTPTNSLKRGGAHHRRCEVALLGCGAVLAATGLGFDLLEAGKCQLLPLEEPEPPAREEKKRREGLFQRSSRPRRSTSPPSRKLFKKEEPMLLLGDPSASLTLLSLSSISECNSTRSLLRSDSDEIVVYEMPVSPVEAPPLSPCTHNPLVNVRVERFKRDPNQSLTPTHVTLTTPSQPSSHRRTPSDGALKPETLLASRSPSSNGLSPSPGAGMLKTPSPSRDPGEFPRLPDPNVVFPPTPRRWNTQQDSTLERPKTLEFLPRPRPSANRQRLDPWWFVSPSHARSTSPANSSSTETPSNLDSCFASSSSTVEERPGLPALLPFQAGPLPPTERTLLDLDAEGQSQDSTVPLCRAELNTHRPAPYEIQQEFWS
The target in test [9] is MAP kinase-interacting serine/threonine-protein kinase 2 (Homo sapiens) (UniProt Q9HBH9). Nature of the test: Enzymatic radiometric [Km ATP] KinaseProfiler LeadHunter assay, kinase: Mnk2, catalogue number: 14-664KP The assay has been performed by Eurofins Discovery. To be noted: ATP concentration 120.0 uM, Test compound concentration 10.0 uM.
Sequence of MAP kinase-interacting serine/threonine-protein kinase 2 (Homo sapiens) (Q9HBH9 whole entry, looked up): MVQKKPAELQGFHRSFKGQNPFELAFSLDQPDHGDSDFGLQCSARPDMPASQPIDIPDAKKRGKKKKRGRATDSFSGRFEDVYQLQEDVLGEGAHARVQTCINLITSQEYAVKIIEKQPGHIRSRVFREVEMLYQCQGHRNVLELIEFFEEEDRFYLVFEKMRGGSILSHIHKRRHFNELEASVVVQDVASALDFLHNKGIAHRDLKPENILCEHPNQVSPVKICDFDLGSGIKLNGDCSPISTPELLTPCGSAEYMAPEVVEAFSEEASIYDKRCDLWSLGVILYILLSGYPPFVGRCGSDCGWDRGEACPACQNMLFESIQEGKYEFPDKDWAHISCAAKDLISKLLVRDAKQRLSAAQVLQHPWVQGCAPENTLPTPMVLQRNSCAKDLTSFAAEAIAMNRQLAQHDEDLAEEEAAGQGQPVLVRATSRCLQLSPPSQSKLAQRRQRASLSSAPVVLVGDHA
Test [10] has as its target Ribosomal protein S6 kinase alpha-4 (Homo sapiens) (UniProt O75676). Nature of the test: Enzymatic radiometric [Km ATP] KinaseProfiler LeadHunter assay, kinase: MSK2, catalogue number: 14-616KP The assay has been performed by Eurofins Discovery. The settings on record: ATP concentration 45.0 uM, Test compound concentration 10.0 uM.
Test [11] has as its target T1, Serine/threonine-protein kinase 4 (Homo sapiens) (UniProt Q13043).
T1 sequence (whole entry): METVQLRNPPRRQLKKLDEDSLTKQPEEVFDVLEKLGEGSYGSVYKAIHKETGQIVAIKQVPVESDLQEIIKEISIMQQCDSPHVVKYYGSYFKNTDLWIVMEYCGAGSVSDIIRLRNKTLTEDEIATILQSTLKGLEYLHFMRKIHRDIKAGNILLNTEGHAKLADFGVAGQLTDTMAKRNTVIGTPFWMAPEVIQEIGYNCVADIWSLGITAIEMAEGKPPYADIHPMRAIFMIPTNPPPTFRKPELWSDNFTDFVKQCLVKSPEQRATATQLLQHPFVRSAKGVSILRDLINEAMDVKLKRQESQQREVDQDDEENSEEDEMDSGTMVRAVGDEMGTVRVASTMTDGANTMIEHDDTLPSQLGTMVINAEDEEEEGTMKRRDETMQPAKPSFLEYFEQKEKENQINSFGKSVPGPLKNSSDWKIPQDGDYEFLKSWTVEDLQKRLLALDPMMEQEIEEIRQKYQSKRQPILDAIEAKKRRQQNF
Nature of the test: Enzymatic radiometric [Km ATP] KinaseProfiler LeadHunter assay, kinase: MST1, catalogue number: 14-624KP The assay has been performed by Eurofins Discovery. The settings on record: ATP concentration 90.0 uM, Test compound concentration 10.0 uM.

Test [12] deals with Serine/threonine-protein kinase mTOR (Homo sapiens) (UniProt P42345). Nature of the test: Enzymatic radiometric [Km ATP] KinaseProfiler LeadHunter assay, kinase: mTOR, catalogue number: 14-769KP The assay has been performed by Eurofins Discovery. The settings on record: ATP concentration 70.0 uM, Test compound concentration 10.0 uM.
Test [13] concerns the target T2, Serine/threonine-protein kinase Nek2 (Homo sapiens) (UniProt P51955).
T2 sequence (whole entry): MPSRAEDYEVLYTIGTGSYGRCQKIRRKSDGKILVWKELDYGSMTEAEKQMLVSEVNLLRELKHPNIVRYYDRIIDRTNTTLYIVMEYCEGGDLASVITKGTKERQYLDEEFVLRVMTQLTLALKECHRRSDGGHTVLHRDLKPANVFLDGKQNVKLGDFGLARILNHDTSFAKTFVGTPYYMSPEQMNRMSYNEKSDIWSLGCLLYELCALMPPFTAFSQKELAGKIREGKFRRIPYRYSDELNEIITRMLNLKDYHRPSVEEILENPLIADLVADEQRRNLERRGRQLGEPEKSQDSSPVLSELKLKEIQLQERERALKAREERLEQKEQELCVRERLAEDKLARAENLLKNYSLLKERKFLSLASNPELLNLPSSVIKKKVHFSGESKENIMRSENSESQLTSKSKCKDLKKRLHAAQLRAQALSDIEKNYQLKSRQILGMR
Nature of the test: Enzymatic radiometric [Km ATP] KinaseProfiler LeadHunter assay, kinase: NEK2, catalogue number: 14-545KP The assay has been performed by Eurofins Discovery. To be noted: ATP concentration 120.0 uM, Test compound concentration 10.0 uM.

The target of test [14] is cAMP-dependent protein kinase catalytic subunit alpha (Homo sapiens) (UniProt P17612). Nature of the test: Enzymatic radiometric [Km ATP] KinaseProfiler LeadHunter assay, kinase: PKA, catalogue number: 14-440KP The assay has been performed by Eurofins Discovery. To be noted: ATP concentration 10.0 uM, Test compound concentration 10.0 uM.
Test [15] deals with Serine/threonine-protein kinase PLK3 (Homo sapiens) (UniProt Q9H4B4). Nature of the test: Enzymatic radiometric [Km ATP] KinaseProfiler LeadHunter assay, kinase: Plk3, catalogue number: 14-572KP The assay has been performed by Eurofins Discovery. To be noted: ATP concentration 70.0 uM, Test compound concentration 10.0 uM.
Sequence of Serine/threonine-protein kinase PLK3 (Homo sapiens) (Q9H4B4 whole entry, looked up): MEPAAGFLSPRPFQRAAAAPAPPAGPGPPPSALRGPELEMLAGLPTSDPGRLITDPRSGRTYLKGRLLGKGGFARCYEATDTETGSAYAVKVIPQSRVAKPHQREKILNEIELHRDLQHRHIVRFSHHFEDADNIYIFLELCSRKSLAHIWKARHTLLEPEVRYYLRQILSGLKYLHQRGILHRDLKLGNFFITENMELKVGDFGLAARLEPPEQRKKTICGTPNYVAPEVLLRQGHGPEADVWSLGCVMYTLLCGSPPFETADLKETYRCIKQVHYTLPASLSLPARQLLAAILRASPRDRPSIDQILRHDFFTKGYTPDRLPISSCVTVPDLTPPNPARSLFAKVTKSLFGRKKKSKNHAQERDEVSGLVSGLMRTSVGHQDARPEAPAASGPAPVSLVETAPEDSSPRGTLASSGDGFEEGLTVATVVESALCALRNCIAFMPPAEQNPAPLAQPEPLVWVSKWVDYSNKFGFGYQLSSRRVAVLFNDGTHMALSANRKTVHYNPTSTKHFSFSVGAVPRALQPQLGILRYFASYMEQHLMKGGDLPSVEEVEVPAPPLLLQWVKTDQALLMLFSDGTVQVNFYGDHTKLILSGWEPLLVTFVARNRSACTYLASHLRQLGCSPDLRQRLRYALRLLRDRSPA
Test [16] concerns the target Mitogen-activated protein kinase 14 (Homo sapiens) (UniProt Q16539). Nature of the test: Enzymatic radiometric [Km ATP] KinaseProfiler LeadHunter assay, kinase: SAPK2a, catalogue number: 14-251KP The assay has been performed by Eurofins Discovery. The settings on record: ATP concentration 90.0 uM, Test compound concentration 10.0 uM.

Sequence of Tyrosine-protein kinase JAK2 (Homo sapiens) (O60674 whole entry): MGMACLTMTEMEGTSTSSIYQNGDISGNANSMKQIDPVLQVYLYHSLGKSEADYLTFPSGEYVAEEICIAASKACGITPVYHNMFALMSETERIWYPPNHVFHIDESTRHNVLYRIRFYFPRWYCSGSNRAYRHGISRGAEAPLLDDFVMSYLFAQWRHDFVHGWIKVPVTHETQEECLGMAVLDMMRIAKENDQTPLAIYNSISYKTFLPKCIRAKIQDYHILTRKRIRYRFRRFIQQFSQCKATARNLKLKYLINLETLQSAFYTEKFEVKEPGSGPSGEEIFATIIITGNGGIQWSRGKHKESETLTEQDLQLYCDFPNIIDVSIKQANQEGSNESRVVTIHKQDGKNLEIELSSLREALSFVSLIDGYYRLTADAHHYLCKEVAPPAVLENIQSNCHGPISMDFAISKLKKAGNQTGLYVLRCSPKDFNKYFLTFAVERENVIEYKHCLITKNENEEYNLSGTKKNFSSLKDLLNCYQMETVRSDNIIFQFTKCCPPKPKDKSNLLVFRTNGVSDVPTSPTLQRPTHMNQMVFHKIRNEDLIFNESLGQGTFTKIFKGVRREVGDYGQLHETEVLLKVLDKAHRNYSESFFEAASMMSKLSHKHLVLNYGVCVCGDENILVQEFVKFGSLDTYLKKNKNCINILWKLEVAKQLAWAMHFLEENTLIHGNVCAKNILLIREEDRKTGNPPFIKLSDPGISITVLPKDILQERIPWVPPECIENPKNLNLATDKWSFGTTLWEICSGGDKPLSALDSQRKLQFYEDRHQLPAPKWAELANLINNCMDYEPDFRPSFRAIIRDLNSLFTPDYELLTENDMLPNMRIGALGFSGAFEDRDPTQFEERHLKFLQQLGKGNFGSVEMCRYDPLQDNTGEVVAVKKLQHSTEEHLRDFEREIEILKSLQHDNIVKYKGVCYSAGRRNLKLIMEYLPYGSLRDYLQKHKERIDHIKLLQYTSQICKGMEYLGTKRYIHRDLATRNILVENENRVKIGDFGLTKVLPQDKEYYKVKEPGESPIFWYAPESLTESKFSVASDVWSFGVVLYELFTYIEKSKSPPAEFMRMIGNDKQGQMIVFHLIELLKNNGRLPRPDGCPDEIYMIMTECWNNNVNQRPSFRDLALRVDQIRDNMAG
Sequence of Ribosomal protein S6 kinase alpha-4 (Homo sapiens) (O75676 whole entry, looked up): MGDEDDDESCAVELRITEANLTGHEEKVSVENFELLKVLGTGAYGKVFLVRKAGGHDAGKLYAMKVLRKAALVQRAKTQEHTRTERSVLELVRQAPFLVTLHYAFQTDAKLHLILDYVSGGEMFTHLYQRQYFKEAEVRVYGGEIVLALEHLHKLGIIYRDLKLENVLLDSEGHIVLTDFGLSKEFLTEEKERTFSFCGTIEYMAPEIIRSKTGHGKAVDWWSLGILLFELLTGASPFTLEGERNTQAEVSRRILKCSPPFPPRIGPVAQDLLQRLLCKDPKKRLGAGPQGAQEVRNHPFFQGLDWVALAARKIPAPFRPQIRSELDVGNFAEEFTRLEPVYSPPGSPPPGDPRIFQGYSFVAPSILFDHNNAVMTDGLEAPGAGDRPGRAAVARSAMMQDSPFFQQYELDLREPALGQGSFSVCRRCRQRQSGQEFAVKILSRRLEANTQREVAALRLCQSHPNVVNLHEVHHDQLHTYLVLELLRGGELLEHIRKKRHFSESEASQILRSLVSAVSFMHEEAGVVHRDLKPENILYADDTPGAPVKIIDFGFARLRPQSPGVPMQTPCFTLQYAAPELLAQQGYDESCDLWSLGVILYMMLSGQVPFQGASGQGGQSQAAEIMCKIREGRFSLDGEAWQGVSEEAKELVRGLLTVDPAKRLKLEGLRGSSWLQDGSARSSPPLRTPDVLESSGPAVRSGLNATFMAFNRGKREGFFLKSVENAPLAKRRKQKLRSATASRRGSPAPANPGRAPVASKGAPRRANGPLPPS
Sequence of Mitogen-activated protein kinase 14 (Homo sapiens) (Q16539 whole entry): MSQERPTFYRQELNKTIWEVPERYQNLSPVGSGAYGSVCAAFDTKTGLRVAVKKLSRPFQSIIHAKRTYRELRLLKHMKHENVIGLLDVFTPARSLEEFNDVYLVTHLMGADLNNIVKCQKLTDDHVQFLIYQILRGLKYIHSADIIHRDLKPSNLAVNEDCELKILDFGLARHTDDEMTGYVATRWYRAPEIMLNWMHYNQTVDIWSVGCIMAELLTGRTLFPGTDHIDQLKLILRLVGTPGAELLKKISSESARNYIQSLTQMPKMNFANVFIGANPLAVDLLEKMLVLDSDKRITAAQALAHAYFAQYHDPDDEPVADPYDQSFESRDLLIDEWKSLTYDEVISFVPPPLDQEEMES

With `COc1ccc([C@H](Cc2nnn[nH]2)NC(=O)c2ncnc3[nH]ccc23)cc1`, the Activity in test [1] was 113%; in [2], 107%; in test [3], 90%; in test [4] it was 103%; in test [5], 116%; in test [6], 97%. Besides, the Activity in test [7] came out at 102%; in test [8] it was 87%; in [9], 115%; in test [10], 103%; in test [11], 127%; in [12], 97%. The Activity in [13] was determined as 106%; in test [14], 88%; in test [15], 102%; in [16], 103%.

In the case of `CC(C)[C@H](Nc1ncnc2[nH]c(-c3cnn(C)c3C#N)cc12)c1ccc2c(n1)OCCO2`, the Activity in test [1] was 104%; in test [2], 98%; in test [3], 98%; in [4], 85%; in test [5], 115%; in test [6], 76%. The Activity in test [7] came to 115%; in test [8], 73%; in test [9] it was 95%; in [10], 114%; in test [11], 120%; in [12], 104%. The Activity came to 105% in [13], 82% in test [14], 102% in test [15] and 99% in [16].

In the case of `CC(C)[C@@H](Nc1ncnc2[nH]ccc12)c1ccc2c(c1)S(=O)(=O)CCC2`, the Activity came out at 96% in [1]; 85% in [2]; 107% in [3]; 88% in test [4]; 110% in test [5]; 82% in test [6]. Besides, the Activity in test [7] was determined as 105%; in test [8], 81%; in [9], 89%; in [10] it was 99%; in test [11], 88%; in [12], 102%. The Activity in test [13] amounted to 118%; in test [14], 98%; in [15], 103%; in test [16], 108%.

For `C[C@H](C(=O)O)[C@@H](NC(=O)c1ncnc2[nH]ccc12)c1ccc(Br)cc1`, the Activity in test [1] is 102%; in test [2], 99%; in test [3] it was 93%; in test [4], 95%; in test [5] it was 99%; in [6], 77%. Further, the Activity in test [7] was determined as 98%; in test [8], 86%; in test [9], 110%; in [10], 90%; in test [11] it was 121%; in test [12] it was 100%. Besides, the Activity was found to be 101% in [13], 87% in test [14], 98% in [15] and 103% in [16].

For the molecule `COc1ccc([C@@H](Cc2nnn[nH]2)NC(=O)c2ncnc3[nH]ccc23)cc1`, the Activity is 97% in [1]; 91% in test [2]; 105% in test [3]; 106% in [4]; 102% in test [5]; 79% in [6]. The Activity in [7] amounted to 92%; in test [8], 85%; in test [9] it was 84%; in test [10], 92%; in [11] it was 98%; in test [12], 95%. Moreover, the Activity was found to be 100% in test [13], 105% in test [14], 102% in test [15] and 100% in test [16].

These data come from ChEMBL document CHEMBL5442741, “ASAP - In vitro kinase profile” (2024).
